According to patent US20220401428A1, “Method for Treatment of Alzheimer's Disease” (University of Kentucky Research Foundation, priority 2019, published 2022):
“Also recorded” adds a separate entry of the source.

What was measured:
LRP1 = LRP1 protein expression in rat brain microvascular ECs (Western blot, immunofluorescence); format: cell-based; settings: ECs, 24 hours, Western blot
From the text: To study the role of miRNA signaling in amylin-induced suppression of endothelial LRP1 expression, transfection of rat brain microvascular ECs was used with miR-103-3p (MCR01039)[…](SEQ ID NO: 5), miR-107-3p (MCR01045)[…](SEQ ID NO: 6) and control (MCH00000) (https://www.abmgood.com/mirna-mimic-negative-control-mch00000.html). Antagomir miR-103-3p (IH-320345-05-0005)(SEQ ID NO: 5), miR-107-3p (IH-320348-05-0005)(SEQ ID NO: 6) and negative control (IN-001005-01-05) (https://www.biocompare.com/22445-RNA/4995709-miRIDIAN-microRNA-Hairpin-Inhibitor-Negative-Control-1-5-nmol/#productspecs) (Dharmacon Inc.) were used in an attempt to rescue LRP1 expression. All transfections were done using RNAiMAX (Invitrogen) as per manufacturer's recommended protocol. Briefly, ECs were plated at 50% confluency in 6-well plates followed by co-transfection with either 100 nM of 103-3p and 107-3p mimics or antagomirs along with their respective negative controls. After 12-hours, antagomir-treated cell groups were further treated with 10 uM human amylin for 24-hours. After 36-hours of transfection, cells were harvested for Western blot analysis.
In immunofluorescence experiments, formalin-fixed, paraffin-embedded human brain tissue was used and processed as previously described^16,18,39, brain capillaries from HIP and WT rats isolated as previously described^18. and cultured ECs. Anti-amylin (1:200; clone E5; SC-377530; Santa Cruz), anti-collagen IV (1:500; ab6586; abcam), anti-alpha smooth muscle actin-Alexa Fluor 405 (1:200; ab210128, abcam), anti-caveolin-1 (1:100; sc-894; Santa Cruz, Tex.), anti-LRP1 (1:500; sc-57351; Santa Cruz), anti-4HNE (1:200; ab46545; abcam) were the primary antibodies. Secondary antibodies were: Alexa Fluor 488 conjugated anti-mouse IgG (1:300; A11029; Invitrogen), Alexa Fluor 568 conjugated anti-rabbit IgG (1:200; A11036; Invitrogen), Alexa Fluor 568 conjugated anti-mouse IgG (1:300; A11004; Invitrogen). Nuclei were counterstained with DAPI mounting media. For triple staining of human brain tissues, smooth muscle actin-Alexa Fluor 405 antibody was added after staining with human amylin and collagen IV; DAPI free mounting media was used. For Thioflavin S staining, after secondary antibody incubation, brain slides were incubated in 0.5% Thioflavin S for 30 minutes at room temperature. Slides were then incubated for 3 minutes in 70% ethanol, 5 minutes in 0.2% Sudan black before washing and mounting. Immunocytochemistry was performed as described previously (39, 40).
Western blot analysis was performed on isolated brain capillaries, brain tissue homogenate and plasma from rats. Tissues were processed as described previously^16,18,28,39. RIPA buffer with 2% SDS was used to retrieve Aβ monomers from frozen brain samples^41. […]

EC monolayer [1] = assay: Structural integrity of the EC monolayer in the in vitro BBB model (TEER, FITC-Dextran, morphology); format: cell-based, rat; settings: 10 μM, 24 hours
Description: (§1) In vitro BBB model of Aβ42 transcytosis with amylin-induced stress at the blood side. An in vitro BBB model described previously^37 was used with modifications related to amylin deposition on the EC monolayer and consequent effects on the Aβ transport across the EC monolayer. Briefly, primary rat brain microvascular endothelial cells (Cell Applications Inc) were plated on 24-well Transwell-Clear inserts with 0.4 μm pore polycarbonate membrane (Costar, Corning, N.Y., USA) and primary rat brain astrocytes (Sigma) were cultured at the bottom wells. Barrier integrity was measured from the trans-endothelial electrical resistance (TEER) as described previously^37,38 using the EVOM2 meter with STX-3 electrodes (World Precision Instruments). Maximum TEER was achieved within 8-10 days in culture. BBB permeabilities to human amylin (10 μM; Anaspec; AS-60254-1), rat amylin (10 μM; American Peptide) and DMSO (1 mM; vehicle) were assessed using FITC-Dextran 4 kDa (Fisher Scientific) diluted in Hank's Balanced Salt Solution (HBSS) buffer with 0.1% BSA (HBSS-BSA) as a paracellular diffusion marker. Permeability coefficients were calculated using the formula; P=(ΔQ/Δt)/(A*C0), (ΔQ/Δt)=rate of FITC-Dextran change; A=surface area of insert (0.33cm^2); C0=Initial FITC-Dextran input.

[2] = system: rat brain microvascular endothelial cells; assay: MTS cytotoxicity assay on ECs; format: cell-based; settings: 500 nM, 1 μM, 5 μM and 10 μM, 24 hours
From the text: CellTiter 96® AQueous One Solution Cell Proliferation Assay (MTS) (Promega) was used to assess cytotoxicity of aggregated amylin on the EC monolayer.

[3] = system: rat brain microvascular ECs; assay: Lipid peroxidation and ROS in cultured rat brain microvascular ECs; format: cell-based; settings: 10 μM amylin, 24-hour incubation
Description: Lipid peroxidation and ROS were measured in cultured rat brain microvascular ECs using previously published protocols^26,39.

EC monolayer [4] = assay: Aβ42 transcytosis across the in vitro BBB model; format: cell-based, rat; settings: 10 μM at the luminal side for 24 hours, then Aβ42-FAM at the abluminal side for 1 hour; vs vehicle; P<0.05
Description: as §1, with “input. […]” for “input.”

LRP1 mRNA = LRP1 mRNA levels in ECs by qRT-PCR; format: cell-based; settings: 10 μM, vs control cells and ECs incubated with rat amylin
From the text: (§2) Total RNA was isolated using RNAqueous total RNA isolation kit according to manufacturer's protocol (Invitrogen, AM1914). cDNA synthesis and amplification were done using iTaq Universal SYBR Green One-Step Kit (Biorad; 1725151) with the following primer sequences: LRP1: forward (Fwd) 5′-[…]-3′(SEQ ID NO: 7), reverse (Rev) 5′-[…]-3′(SEQ ID NO: 8); and GAPDH: Fwd 5′- […]-3′(SEQ ID NO: 9), Rev 5′-GTTTGCTCCAACCAACTGC-3′(SEQ ID NO: 10) (IDT, Inc, USA). For miRNA quantification, cDNA was synthesized from total RNA using miRNA cDNA synthesis kit with poly (A) polymerase (ABMgood, G902). cDNA was amplified using SYBR Green mastermix (Biorad) along with miRNA specific primers from (rno-miR-103-3p, MPR00332; rno-miR-107-3p, MPRO0335; RNU6 house Keeping gene, MP-r99998) (ABMgood). Data were analyzed using the 2^−ΔΔCt method, and experiments were normalized to GAPDH or U6 miRNA

miR-103 and miR-107 = miR-103 and miR-107 expression in ECs by qRT-PCR; format: cell-based, rat; settings: ECs incubated with human amylin
From the text: as §2

human amylin
reduction of LRP1 expression (LRP1; 10 μM): more than 50%
LRP1 protein levels against concentration (LRP1; various concentrations (500 nM to 10 μM)): decreased with increasing concentrations
EC monolayer morphology (EC monolayer [1]): neither the intercellular space, as assessed from FITC-dextran permeability (FIG. S4C-D), nor EC monolayer morphology (FIG. 18E) were significantly altered
TEER (EC monolayer [1]): decreased
intercellular space assessed from FITC-dextran (4 kDa) permeability (EC monolayer [1]): neither the intercellular space, as assessed from FITC-dextran permeability (FIG. S4C-D), nor EC monolayer morphology (FIG. 18E) were significantly altered
viability of the ECs [2]: not significant; also recorded: not affected
generation of ROS [3]: increased generation of ROS
lipid peroxidation of the EC membranes [3]: lipid peroxidation of the EC membranes
reduction of the Aβ transcytosis quotient (EC monolayer [4]): 20+5%
LRP1 mRNA levels (LRP1 mRNA): greatly elevated
miR-103 and miR-107 levels (miR-103 and miR-107): elevated levels of miR-103 and miR-107
